For data set [1] the following is noted: mice; therapeutic doses; cited from earlier work.
The subject of data set [2] is mouse L1210 leukemia cells. As to conditions: cited from earlier work; for IC50 values (range in words): growth of mouse L1210 leukemia cells in culture.
Data set [3] concerns panel of 60 human cancer cell lines. The experiment in a line: NCI in-vitro cytotoxicity screen, whole panel. The format is cell-based.
A further data set deals with melanoma. The following applies: phase I clinical trial; cited from earlier work.
In another data set the test system is L1210 leukemia. The following applies: carzelesin 400 μg/kg, adozelesin 100 μg/kg; cited from earlier work.
The conditions of data set [4]: favoring the natural (+)-isomer; cited from earlier work.

Description for BT-549: (§1) The compounds of this invention were also tested against the panel of 60 human cancer cell lines at the National Cancer Institute, Bethesda, Md. (44). The cytrotoxicity studies were conducted using a 48 hour exposure, and measuring the optical density of sulforhodamide B-derived color.
Description for CCRF-CEM: (§2) The compounds of this invention were also tested against the panel of 60 human cancer cell lines at the National Cancer Institute, Bethesda, Md. […] The cytrotoxicity studies were conducted using a 48 hour exposure, and measuring the optical density of sulforhodamide B-derived color.
Description for HS 578T: as §1
Description for HT29: as §2
Description for K-562: as §2
Description for LOX IMVI: as §1
Description for MOLT-4: as §2
Description for NCI-H23: as §2
Description for OVCAR-8: as §1
Description for SF-268: as §1
Description for SR: as §2
Description for TK-10: as §2

For the compound `COc1c2c(c3cc(C(=O)N4CCc5c4c(OC)c(O)c4[nH]c(C(=O)N6CC7C[C@@]78C6=CC(=O)c6[nH]cc(C)c68)cc54)[nH]c3c1O)CCN2C(N)=O` (single isomer, unassigned; (+)) [(+)-CC1065], the “delayed lethality / delayed toxicity” value in data set [1] is on record as “delayed lethality”. In addition, the IC50 in [2] (L1210) was 0.02 nM. The “IC50 values (range in words)” value in data set [2] is “pM range”.
As to `COC(=O)c1cc2c([nH]1)C(=O)C=C1N(C(=O)c3cc4cc(OC)c(OC)c(OC)c4[nH]3)CC3CC123` (single isomer, unassigned; (+)) [DUMSA, (+)-duocarmycin SA], the “delayed lethality / delayed toxicity” value in data set [1] is listed as “devoid of this toxic side effect”. Moreover, the “IC50 values (range in words)” value in data set [2] is given as “pM range”.
Regarding `COc1cc2cc(C(=O)Nc3cc(O)ccc3CCCl)[nH]c2c(OC)c1OC` [Compound 3, 4-(2-Chloroethyl)-3-(5,6,7-trimethoxyindole-2-carboxamino)phenol], the CC50 with LOX IMVI, in the data set with NCI-H322M, with SF-268, in the data set on CCRF-CEM, with HS 578T and with OVCAR-8 was above 100 µM each time. The CC50 with MOLT-4 is above 100 µM; with SR it was above 100 µM; with TK-10, 23.5 µM; in the data set on BT-549, above 100 µM; in the data set with HT29 it was above 100 µM; with K-562, above 100 µM. This compound returned a CC50 with NCI-H23 above 100 µM. The same compound returned a GI50 in the data set on NCI-H322M of 2.81 µM. Also, the range of activity entry in data set [3] (48 hour exposure) was “micromolar range”. The “activity against leukemia cells” value in [3] (leukemia cells) is on record as “none of these compounds showed much activity”. Besides, in data set [3] (melanoma cells), the “activity against melanoma cells” value is listed as “active”. Besides, the “activity against solid tumors cells” value in [3] (solid tumors cells) is “strong activity”.
In the case of `Cc1c[nH]c2c1[C@@]13C[C@@H]1CN(C(=O)c1cc4cc(NC(=O)c5cc6ccccc6o5)ccc4[nH]1)C3=CC2=O` [adozelesin], in the data set on melanoma, the clinical response entry is recorded as “partial response”. In the data set with L1210 leukemia, the ILS is reported as 90±11% and the survival is on record as 0/6. Further, in data set [1], the “delayed lethality / delayed toxicity” value is listed as “devoid of the delayed toxicity problem”.
Regarding CPI-In-In, the “difference in cytotoxicity between enantiomers” value in data set [4] is recorded as “about 250 fold”.

As a reminder, the IC50 is the point on the concentration scale where inhibition reaches its midpoint. The GI50 is the concentration that inhibits growth by half. Read a high GI50 as less potent growth inhibition. By ILS is commonly meant how much longer treated animals lived than controls.

Values taken from patent publication US6660742B2, “Compositions and methods of the use thereof achiral analogues of CC-1065 and the duocarmycins” (priority 2000, dated 2003).
